Results taken from patent US6605614B2, “[1,8] naphthyridine derivatives having antiviral activity” (BioChem Pharma Inc., priority 1999, dated 2003).
Where a name gives a salt, the structure may show the parent alone.

Tests used:
[1] = Compound toxicity, WST-1, non-infected MDBK cells; format: cell-based; settings: bovine, 4 days incubation, WST-1 readout
Experimental: (§1) To determine the anti-viral effect of the compounds, MDBK cells were infected with the cytopathic strain of BVDV(NADL) using a 0.006 to 0.01 MOI. 3000 cells were then seeded in each well of a 96-well plate containing the compound. The final volume was 200 μl of media per wells. […] Cell culture was then incubated for another 2 hrs at 37° C., after which 20 μl of 10% SDS was added to each well in order to inactivate the virus and the OD at 450 nm was determined using a microplate reader (Dynatech MR5000).
In parallel, the same experiment was performed using non-infected cells to determine the compound toxicity. […]

[2] = tested on: BVDV(NADL); assay: WST-1 based BVDV anti-viral assay (CPE reduction in infected MDBK cells); format: cell-based; settings: Bovine viral diarrhea virus isolates and strains, 96 h, MDBK cells infected with cytopathic BVDV (NADL), MOI 0.006 to 0.01, 4 days incubation, WST-1 readout, read-out: BVDV antiviral effect IC50
Experimental: Currently, the WST-1 based BVDV assay, is being used as surrogate to evaluate potential anti-HCV agents since BVDV (bovine viral diarrhea virus) shares functional homology with the HCV.
as §1, with “MR5000). […]” for “MR5000).”

SMILES	CC50 at 4 days [1]	IC50 [2]
O=C(NCc1cccnc1)c1ccc2cccnc2n1 [Compound #12, [1,8] naphthyridine-2-carboxylic acid (pyridin-3-ylmethyl)-amide]	> 75.7 µM	~18.9 µM
CC(C)Oc1ccccc1CNC(=O)c1ccc2cccnc2n1 [Compound #8, [1,8] naphthyridine-2-carboxylic acid 2-isopropoxy-benzylamide]	> 62.2 µM	< 62.2 µM
O=C(NCc1ccccn1)c1ccc2cccnc2n1 [Compound #13, [1,8] naphthyridine-2-carboxylic acid (pyridin-2-ylmethyl)-amide]	> 75.7 µM	–
COc1ccccc1CNC(=N)c1ccc2cccnc2n1 [Compound #27, N-(2-methoxy-benzyl)-[1,8]naphthyridine-2-carboxamidine trifluoroacetate]	> 63.2 µM	~0.33 µM
O=C(Nc1nccs1)c1ccc2cccnc2n1 [Compound #22, [1,8] naphthyridine-2-carboxylic acid thiazol-2-ylamide]	> 78 µM	–
O=C(NCc1ccccc1)c1ccc2cccnc2n1 [Compound #2, [1,8] naphthyridine-2-carboxylic acid benzylamide]	> 76 µM	< 76 µM
O=C(NCc1ccccc1F)c1ccc2cccnc2n1 [Compound #16, [1,8] naphthyridine-2-carboxylic acid 2-fluoro-benzylamide]	> 71.1 µM	~1.1 µM
CC[C@@H](C)Oc1ccccc1CNC(=O)c1ccc2cccnc2n1 [Compound #10, (−)-[1,8] naphthyridine-2-carboxylic acid 2-sec-butoxy-benzylamide]	> 6 µM	> 6 µM
COc1ccc(CNC(=O)c2ccc3cccnc3n2)cc1 [Compound #3, [1,8] naphthyridine-2-carboxylic acid 4-methoxy-benzylamide]	> 68.2 µM	~1.7 µM
O=C(Nc1cccc([N+](=O)[O-])c1)c1ccc2cccnc2n1 [Compound #19, [1,8] naphthyridine-2-carboxylic acid (3-nitrophenyl)-amide]	> 68 µM	~1.7 µM
O=C(NCc1ccccc1Cl)c1ccc2cccnc2n1 [Compound #17, [1,8] naphthyridine-2-carboxylic acid 2-chloro-benzylamide]	> 67.2 µM	~3.6 µM
O=C(NCc1cccc(C(F)(F)F)c1)c1ccc2cccnc2n1 [Compound #31, [1,8] naphthyridine-2-carboxylic acid (phenylmethyl-3-trifluoromethyl)-amide]	> 60.4 µM	~3 µM
O=C(Nc1cccc(C(F)(F)F)c1)c1ccc2cccnc2n1 [Compound #30, [1,8] naphthyridine-2-carboxylic acid (phenyl-3-trifluoromethyl)-amide]	6.3 µM	~0.6 µM
O=C(Nc1cccnc1)c1ccc2cccnc2n1 [Compound #29, [1,8] naphthyridine-2-carboxylic acid pyridin-3-yl-amide]	> 79.9 µM	~3.2 µM
COc1cc(OC)c(CNC(=O)c2ccc3cccnc3n2)c(OC)c1 [Compound #5, [1,8] naphthyridine-2-carboxylic acid 2,4,6-trimethoxy-benzylamide]	> 56.6 µM	~1.1 µM
COc1cccc(CNC(=O)c2ccc3cccnc3n2)c1 [Compound #4, [1,8] naphthyridine-2-carboxylic acid 3-methoxy-benzylamide]	> 68.2 µM	~6.8 µM
O=C(Nc1ccccn1)c1ccc2cccnc2n1 [Compound #15, [1,8] naphthyridine-2-carboxylic acid pyridin-2-ylamide]	> 79.9 µM	–
O=C(Nc1ccccc1F)c1ccc2cccnc2n1 [Compound #24, [1,8] naphthyridine-2-carboxylic acid (2-fluoro-phenyl)-amide]	> 74.8 µM	~7.5 µM
O=C(Nc1ccccc1)c1ccc2cccnc2n1 [Compound #28, [1,8] naphthyridine-2-carboxylic acid phenyl-amide]	> 80.2 µM	–
O=C(Nc1nc2ccccc2s1)c1ccc2cccnc2n1 [Compound #23, [1,8] naphthyridine-2-carboxylic acid benzothiazol-2-ylamide]	> 6.5 µM	–
